Laboratory results: paper PMC11467761 (RSC Medicinal Chemistry, 2024)

Columns and labels:
Caco-2 cell monolayers = assay: Caco-2 cell permeability; assay type: in vitro ADME, human; details: polarized Caco-2 cell monolayers
[1] = tested on: human induced pluripotent stem cell (iPSC)-derived cardiomyocytes, iCell Cardiomyocytes2; assay: Cardiac safety assay, Ca2+ oscillation in iPSC-derived cardiomyocytes; details: 60 minutes, n = 3

Caco-2 cell permeability Class (Caco-2 cell monolayers) | Compound | Effect on pulse waveforms and beat intervals (Ca2+ oscillation) ([1]; 0.2 μM) | Effect on pulse waveforms and beat intervals (Ca2+ oscillation) ([1]; 2 μM) | Effect on pulse waveforms and beat intervals (Ca2+ oscillation) ([1]; 20 μM)
High | O=C(C1CCCCC1)N1CON2CCc3ccccc3C2C1 (centres unmarked) [Compound 4] | did not affect the pulse waveforms and beat intervals | the pulse waveforms remained unchanged, but a slight shortening of beat intervals was observed for up to 30 minutes post-addition | did not alter the pulse waveforms, but resulted in shortened beat intervals
High | O=C(C1CCCCC1)N1CC(=O)N2CCc3ccccc3C2C1 (centres unmarked) [PZQ, praziquantel, reference compound] | – | – | –
